Values after ≈ are worked out from the molar mass of the structure shown. “Also recorded” adds a separate entry of the source. Like-named read-outs stand apart in the source and are kept apart here.
Experiments:
[1] = tested on: human lung cancer cell line NCI-H460; assay: cells; assay type: cell-based; settings: for IC50: Homo sapiens; for inhibitory effect on NCI-H460 cells (in words): lung cancer
Protocol: (§1) Cell lines: Human pancreatic cancer cell line Panc-1, human colorectal cancer cell line HT29, human lung cancer cell line NCI-H460 and human breast cancer cell line MCF7; the medium: s DMEM (Gibco BRL), containing 10% fetal calf serum (Gibco BRL) and 2 mM L-glutamine (Gibco BRL).
(§2) Test samples: example compounds 7, 15, 82, 89, 116 and 135. The samples were dissolved in dimethyl sulfoxide (DMSO, Sigma, United States) and medium was added to the final concentration of 0.5%. Cyclophosphamide ware as positive control (Aldrich, United States, purity>96%).
(§3) General Method: cells were digested with trypsin and dispersed into single cells in the medium containing penicillin (25 U/ml) and streptomycin (25 μg/mL). The cells were seeded in 96-well culture plates (Corning Incorporated), at 37° C., with 5% CO2 present for 24 hours. The culture medium was removed, […] test compounds were added, cultured for 48 hours. Culture medium was removed and […] (MTT, USA Sigma products) was added. The result was assayed by SK601-based microplate reader (Japan Seikagaku company's products), 570 nm/630 nm optical density (OD). Cell viability determined by the formula: (Experimental group OD/control OD)×100%; CTX and the positive control subjects treated in the same material simultaneously.

[2] = tested on: human colorectal cancer cell line HT29; assay: cells; assay type: cell-based; settings: for IC50: Homo sapiens; for anti-proliferative effect on HT29 (in words): colorectal cancer
Protocol: as §1, §2, §3

[3] = tested on: Human pancreatic cancer cell line Panc-1; assay: cells; assay type: cell-based; settings: for IC50: Homo sapiens, read-out: IC50 and 95% confidence limit, anti-proliferative effect on Panc-1; for anti-proliferative effect on Panc-1 (in words): pancreatic cancer
Protocol: as §1, §2, §3

[4] = tested on: human breast cancer cell line MCF7; assay: cells; assay type: cell-based
Protocol: as §1, §2, §3

[5] = tested on: mice sarcoma S180; assay: Growth inhibition of S180 sarcoma in mice; assay type: in vivo, Kunming healthy mice; settings: for in-vivo anti-tumor efficacy, statistical significance (in words): S180 sarcoma in mice, doses and routes of Table 3
[6] = NCI-H460, MTT, 48 hours, unit inferred, read-out: IC50 and 95% confidence limits, NCI-H460 cells
[7] = NCI-H460, MTT, cultured for 48 hours, value (95% confidence limit), Table 2, read-out: IC50 Lung cancer NCI-H460
[8] = HT-29, MTT, 48 hours, read-out: IC50 and 95% confidence limit, anti-proliferative effect on HT29
[9] = HT-29, MTT, cultured for 48 hours, value (95% confidence limit), Table 2, read-out: IC50 Colorectal cancer HT-29
[10] = MCF7, MTT, 48 hours, unit inferred, read-out: IC50 with 95% confidence limits, MCF7 cells
[11] = MCF7, MTT, cultured for 48 hours, value (95% confidence limit), Table 2, read-out: IC50 Breast cancer MCF7
[12] = Mus musculus, S-180, mice, iv, read-out: Inhibition rate (%) S180 sarcoma

SMILES	IC50 [1, 6] [µM]	IC50 [1, 7] [µM]	inhibitory effect on NCI-H460 cells (in words) [1]	IC50 [2, 8] [µg/mL]	IC50 [2, 9] [µM]	anti-proliferative effect on HT29 (in words) [2]	IC50 ([3]; PANC-1, MTT, 48 hours) [µg/mL]	IC50 [4, 10] [µM]	IC50 [4, 11] [µM]	inhibition in vivo at 50 mg/kg [5, 12] [%]	in-vivo anti-tumor efficacy, statistical significance (in words) [5]	anti-proliferative effect on Panc-1 (in words) [3]	other results
CCOC(=O)c1nn(CO)c2c(=O)n(C3OC3CO)nnc12 (centres unmarked) [Example 7, ethyl 7-(hydroxymethyl)-2-(3-(hydroxymethyl)oxiran-2-yl)-1-oxo-2,7-dihydro-1H-pyrazolo[4,3-d][1,2,3]triazine-5-carboxylate]	5.18	5.18	more sensitive to NCI-H460 cells	18.8	18.8	relatively weak	51.3 (≈ 165 µM)	6.18	6.18	–	–	–	–
Nc1nn(O)c2c(=O)n(C3OC(CO)C(O)C3O)nnc12 (centres unmarked) [Example 15, 7-amino-3-(3,4-dihydroxy-5-(hydroxymethyl)tetrahydrofuran-2-yl)-5-hydroxy-3H-pyrazolo[4,3-d][1,2,3]triazin-4(5H)-one]	22	22	more sensitive to NCI-H460 cells	3.92	3.92	close values to CTX; also recorded: higher inhibition activity	2.68 (≈ 8.93 µM)	2.73	2.73	< 40	statistically significant	higher inhibition activity	–
CCCc1nn(C(C(=O)O)P(=O)(OCC)OCC)c2c(=O)n(C3CCC(CO)O3)nnc12 (centres unmarked) [Example 82, 2-(diethoxyphosphoryl)-2-(3-(5-(hydroxymethyl)tetrahydrofuran-2-yl)-4-oxo-7-propyl-3H-pyrazolo[4,3-d][1,2,3]triazin-5(4H)-yl)acetic acid]	60.5	60.5	–	10.2	13.1	relatively weak	53 (≈ 112 µM)	34.3	34.3	–	–	–	inhibition in vivo at 15 mg/kg ([5]; Mus musculus, S-180, mice, iv, 15 mg/kg, read-out: Inhibition rate (%) S180 sarcoma): < 20%
Nc1nn(O)c2c(=O)n(C3CSC(CO)O3)nnc12 (centres unmarked) [Example 89, 7-amino-5-hydroxy-3-(2-(hydroxymethyl)-1,3-oxathiolan-5-yl)-3H-pyrazolo[4,3-d][1,2,3]triazin-4(5H)-one]	8.52	8.52	–	13.1	10.2	relatively weak	10 (≈ 35 µM)	67.5	67.5	–	statistically significant	–	inhibition in vivo at 100 mg/kg ([5]; Mus musculus, S-180, mice, ip, 100 mg/kg, read-out: Inhibition rate (%) S180 sarcoma): < 40%
CCOC(=O)c1nn(O)c2c(=O)n(C3OC(COC(C(=O)O)P(NC(C)C)OCC#N)C(O)C3O)nnc12 (centres unmarked) [Example 116, 2-((cyanomethoxy)(isopropylamino)phosphino)-2-((5-(7-(ethoxycarbonyl)-5-hydroxy-4-oxo-4,5-dihydro-3H-pyrazolo[4,3-d][1,2,3]triazin-3-yl)-3,4-dihydroxytetrahydrofuran-2-yl)methoxy)acetic acid]	–	–	more sensitive to NCI-H460 cells	–	–	the strongest; also recorded: higher inhibition activity	–	–	–	< 40	statistically significant	a strong anti-proliferative effect, better than CTX; also recorded: higher inhibition activity	IC50 ([1]; NCI-H460, 48 h, read-out: IC50 Lung cancer NCI-H460): 4.62 µM; IC50 ([1]; NCI-H460, 48 h, read-out: IC50 and 95% confidence limits, NCI-H460 cells): 4.62 µM; IC50 ([2]; HT-29, 48 h, read-out: IC50 Colorectal cancer HT-29): 2.68 µM; IC50 ([2]; HT-29, 48 h, read-out: IC50 and 95% confidence limit, anti-proliferative effect on HT29): 2.68 µg/mL; IC50 ([3]; PANC-1, 48 h): 2.19 µg/mL (≈ 3.91 µM); IC50 ([4]; MCF7, 48 h, read-out: IC50 Breast cancer MCF7): 12.9 µM; IC50 ([4]; MCF7, 48 h, read-out: IC50 with 95% confidence limits, MCF7 cells): 12.9 µM
CCCc1nn(C)c2c(=O)n(C3OC(COP(=O)(O)OP(=O)(O)OP(=O)(O)O)C(O)C3O)nnc12 (centres unmarked) [Example 135, (3,4-dihydroxy-5-(5-methyl-4-oxo-7-propyl-4,5-dihydro-3H-pyrazolo[4,3-d][1,2,3]triazin-3-yl)tetrahydrofuran-2-yl)methyl tetrahydrogen triphosphate]	14	14	–	18	18	relatively weak	53.5	5.7	5.7	–	statistically significant	–	inhibition in vivo at 25 mg/kg ([5]; Mus musculus, S-180, mice, iv, 25 mg/kg, read-out: Inhibition rate (%) S180 sarcoma): < 40%

From patent publication US20210292347A1, “DIHETEROCYCLIC TRIAZINONE NUCLEOSIDE ANALOGS AND THEIR USE FOR MEDICATION” (priority 2020, published 2021)
